What all share (assay type): in vivo
One assay deals with Boophilus microplus. Kind of assay: Boophilus microplus test (BOOPMI injection). As to conditions: application rate 20 μg/animal; injected into the abdomen; after 7 days. The procedure, abridged: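 Active ingredient dissolved in DMSO (10 mg in 0.5 ml, then diluted to the test concentration) and injected into the abdomen of Boophilus microplus ticks. Ticks kept in dishes in a climate-controlled room for 7 days. Efficacy (%) is based on laying of fertile eggs; 100% means no tick laid fertile eggs.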

In another assay the test system is Phaedon cochleariae. Kind of assay: Phaedon test (PHAECO spray treatment). As to conditions: application rate 100 g/ha, Chinese cabbage leaf discs, after 7 days. In short, it runs like this:
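Chinese cabbage leaf discs were sprayed with compound in acetone/DMF with emulsifier, diluted in water to the test concentration. After drying, discs were infested with mustard beetle larvae. Efficacy in % was scored after 7 days, where 100% means all larvae were killed and 0% means none.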

The next assay has as its system Tetranychus urticae. In words: Common spider mite test (TETRUR). As to conditions: application rate 100 ppm; bean leaf discs; after 6 days. Here is the method: Common Spider Mite Test (TETRUR) Solvent: 3 parts by weight of dimethylformamide Emulsifier: 1 part by weight of polyoxyethylene alkylphenyl ether To produce an appropriate active ingredient formulation, 1 part by weight of active ingredient is mixed with the stated amounts of solvent and emulsifier, and the concentrate is diluted with emulsifier-containing water to the desired concentration. If required, ammonium salts or ammonium salts and penetrants are additionally added in a concentration of 1000 ppm. Discs of bean leaves (Phaseolus vulgaris) infested by all stages of the red spider mite (Tetranychus urticae) are sprayed with an active ingredient formulation of the desired concentration. After 6 days, the efficacy in % is determined. 100% means that all of the spider mites have been killed; 0% means that none of the spider mites have been killed.

The test system of assay [1] is adult engorged Boophilus microplus females of the SP-resistant Parkhurst strain. In words: Boophilus microplus test (DIP). The following applies: application rate 100 ppm, after 7 days. Here is the method:
Boophilus microplus Test (DIP)
Test animals: adult engorged Boophilus microplus females of the SP-resistant Parkhurst strain
Solvent: dimethyl sulphoxide
10 mg of active ingredient are dissolved in 0.5 ml of dimethyl sulphoxide. For the purpose of preparing a suitable formulation, the active ingredient solution is diluted with water to the concentration desired in each case.
This active ingredient formulation is pipetted into tubes. 8-10 ticks are transferred into a further tube with holes. The tube is immersed into the active ingredient formulation, and all ticks are completely wetted. After the liquid has run out, the ticks are transferred onto filter discs in plastic dishes and stored in a climate-controlled room.
The activity is assessed after 7 days by laying of fertile eggs. Eggs whose fertility is not outwardly visible are stored in glass tubes in a climate-controlled cabinet until the larvae hatch. An efficacy of 100% means that none of the ticks has laid any fertile eggs.

The next assay deals with Myzus persicae. Kind of assay: Myzus test (MYZUPE spray treatment). The following applies: application rate 100 g/ha; Chinese cabbage leaf discs; after 6 days. In short, it runs like this: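 Chinese cabbage leaf discs carrying all aphid stages sprayed with active ingredient in acetone/DMF with alkylaryl polyglycol ether emulsifier, diluted in emulsifier-containing water to the desired concentration. Efficacy (% aphids killed) scored after 6 days; 100% = all killed, 0% = none killed.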

Consider `C#CCn1c(C(=O)NC(c2ccc(F)c(C(F)(F)F)c2)C(F)(F)F)cc2cc(C(=O)NC3CC3)c(Cl)cc21` (centres unmarked) [Compound 6], for which the “efficacy (laying of fertile eggs)” value in the assay with Boophilus microplus is 100%. Further, the efficacy in % in the assay with Phaedon cochleariae and with Tetranychus urticae was 100% in each case.
For the molecule `CCn1c(C(=O)NC(c2cccc(C(F)(F)F)c2)C(F)(F)F)cc2cc(C(=O)NC3(C#N)CC3)c(Cl)cc21` (centres unmarked) [Compound 7, 6-chloro-N^5-(1-cyanocyclopropyl)-1-ethyl-N^2-{2,2,2-trifluoro-1-[3-(trifluoromethyl)phenyl]ethyl}-1H-indole-2,5-dicarboxamide], the “efficacy (laying of fertile eggs)” value (in the assay with Boophilus microplus; in assay [1]) was 100% each time. Also, in the assay on Phaedon cochleariae (Phaedon cochleariae, foliar, 168 h, read-out: efficacy in %), the pest or weed control at 100 g/ha is 100%. The efficacy in % is 100% in the assay with Tetranychus urticae and 90% in the assay with Myzus persicae.

Source of the values: patent US9107411B2, “Indolecarboxamides and benzimidazolecarboxamides as insecticides and acaricides” (BAYER INTELLECTUAL PROPERTY GMBH, priority 2011, dated 2015).
